Source: BindingDB's records for doi:10.1016/j.ejmech.2020.112861 (Zhengzhou University, 2021)
pKd: −log10 of the molar value.

Target: Bromodomain-containing protein 4 (Homo sapiens, UniProt O60885)
Assay: Binding affinity to human BRD4 bromodomain1 by isothermal titration calorimetry

In the case of `Cc1noc(C)c1-c1ccc2c(c1)nc(CCc1ccccc1)n2CCN1CCOCC1`, the pKd was 6.02.
